Test results reported in PubChem BioAssay (NCI).
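Interpolation was linear, between the two tested concentrations surrounding the appropriate level; five concentrations were tested over 48 hours in 96-well plates. Abbreviation: GI50, concentration required for 50% inhibition of growth. At the TGI there is no net growth.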

What was measured:
Assay in all cases: NCI-60 cell line screen, 48 h
[1] = system: T-47D breast
[2] = system: RPMI-8226 leukemia
[3] = system: BT-549 breast
[4] = system: OVCAR-3 ovarian
[5] = system: HOP-62 NSCLC
[6] = system: K-562 leukemia
[7] = system: SW-620 colon
[8] = system: OVCAR-5 ovarian
[9] = system: UO-31 renal
[10] = system: CAKI-1 renal
[11] = system: NCI-H226 lung
[12] = system: SF-295 CNS
[13] = system: NCI-H522 lung
[14] = system: NCI/ADR-RES ovarian
[15] = system: U251 CNS
[16] = system: HL-60(TB) leukemia
[17] = system: SNB-75 CNS
[18] = system: HS 578T breast
[19] = system: 786-0 renal
[20] = system: EKVX NSCLC
[21] = system: SN12C renal
[22] = system: COLO 205 colon
[23] = system: OVCAR-4 ovarian
[24] = system: SK-MEL-28 melanoma
[25] = system: KM12 colon
[26] = system: A498 renal
[27] = system: ACHN renal
[28] = system: NCI-H23 lung
[29] = system: SK-MEL-2 melanoma
[30] = system: SK-OV-3 ovarian
[31] = system: MDA-MB-435
[32] = system: SR leukemia
[33] = system: RXF 393 renal
[34] = system: SNB-19 CNS
[35] = system: MDA-MB-231 breast
[36] = system: TK-10 renal
[37] = system: A549 NSCLC
[38] = system: IGROV1 ovarian
[39] = system: HCT-15 colon
[40] = system: M14 melanoma
[41] = system: HOP-92 NSCLC
[42] = system: UACC-62 melanoma
[43] = system: HCT-116 colon
[44] = system: OVCAR-8 ovarian
[45] = system: HT29 colon
[46] = system: MCF7 breast
[47] = system: MALME-3M melanoma
[48] = system: MOLT-4 leukemia
[49] = system: UACC-257 melanoma
[50] = system: SF-268 CNS
[51] = system: SF-539 CNS
[52] = system: NCI-H460 lung
[53] = system: DU-145 prostate
[54] = system: CCRF-CEM leukemia
[55] = system: PC-3 prostate
[56] = system: SK-MEL-5 melanoma
[57] = system: LOX IMVI melanoma
[58] = system: HCC-2998 colon

`COc1ccc(/C=C2\CCCC3=C2NC(N)=NC3c2ccc(OC)c(OC)c2)cc1OC` (stereo unspecified) showed a GI50 [1] of 6.61 µM, a TGI [1] of over 60.5 µM and a GI50 [2] of 837 nM. It also gave a TGI [2] of 15.4 µM, a GI50 [3] of 3.62 µM and a TGI [3] of over 100 µM. The GI50 [4] was 5.41 µM, the TGI [4] was over 100 µM and the GI50 [5] was 4.04 µM. The TGI [5] was over 66.9 µM, the GI50 [6] was 6.17 µM and the TGI [6] was over 100 µM. It also gave a GI50 [7] of 4.58 µM, a TGI [7] of over 50.3 µM and a GI50 [8] of over 54.5 µM. The TGI [8] was over 100 µM, the GI50 [9] was 11.8 µM and the TGI [9] was over 57.1 µM. It also gave a GI50 [10] of 4.11 µM, a TGI [10] of over 100 µM and a GI50 [11] of 3.02 µM. The TGI [11] was 20.2 µM, the GI50 [12] was 8.69 µM and the TGI [12] was over 100 µM. The GI50 [13] was 7 µM, the TGI [13] was 36.8 µM and the GI50 [14] was 1930 nM. The TGI [14] was over 100 µM, the GI50 [15] was 2530 nM and the TGI [15] was over 91.9 µM. It also gave a GI50 [16] of 4.52 µM, a TGI [16] of over 100 µM and a GI50 [17] of 2410 nM. It also gave a TGI [17] of 13.8 µM, a GI50 [18] of 21.5 µM and a TGI [18] of over 100 µM. It also gave a GI50 [19] of 14.2 µM, a TGI [19] of over 100 µM and a GI50 [20] of 39.7 µM. For the same compound, the TGI [20] was over 100 µM, the GI50 [21] was over 39.6 µM and the TGI [21] was over 100 µM. For the same compound, the GI50 [22] was 4.8 µM, the TGI [22] was over 100 µM and the GI50 [23] was 5.2 µM. It also gave a TGI [23] of over 100 µM, a GI50 [24] of 21.6 µM and a TGI [24] of over 100 µM. It also gave a GI50 [25] of 6.87 µM, a TGI [25] of over 100 µM and a GI50 [26] of 13.1 µM. For the same compound, the TGI [26] was over 82.6 µM, the GI50 [27] was 4.14 µM and the TGI [27] was over 76.2 µM. The GI50 [28] was 7.33 µM, the TGI [28] was over 100 µM and the GI50 [29] was 9.59 µM. It also gave a TGI [29] of 81.9 µM, a GI50 [30] of 13.4 µM and a TGI [30] of over 100 µM. It also gave a GI50 [31] of 1430 nM, a TGI [31] of over 100 µM and a GI50 [32] of 915 nM. It also gave a TGI [32] of 22.6 µM, a GI50 [33] of 3.96 µM and a TGI [33] of 24.2 µM. The GI50 [34] was over 88.7 µM, the TGI [34] was over 100 µM and the GI50 [35] was 13.2 µM. It also gave a TGI [35] of over 100 µM, a GI50 [36] of 4.68 µM and a TGI [36] of 27.9 µM. For the same compound, the GI50 [37] was 33.2 µM, the TGI [37] was over 100 µM and the GI50 [38] was 28.9 µM. It also gave a TGI [38] of over 100 µM, a GI50 [39] of 9.68 µM and a TGI [39] of over 100 µM. The GI50 [40] was 6.25 µM, the TGI [40] was over 73.2 µM and the GI50 [41] was 2610 nM. The TGI [41] was 17.1 µM, the GI50 [42] was 10.9 µM and the TGI [42] was over 100 µM. For the same compound, the GI50 [43] was 1280 nM, the TGI [43] was 8.64 µM and the GI50 [44] was 2080 nM. It also gave a TGI [44] of over 100 µM, a GI50 [45] of 7.75 µM and a TGI [45] of over 100 µM. For the same compound, the GI50 [46] was 1890 nM, the TGI [46] was over 100 µM and the GI50 [47] was 23.7 µM. It also gave a TGI [47] of over 70.2 µM, a GI50 [48] of 4.04 µM and a TGI [48] of over 100 µM. The GI50 [49] was 5 µM, the TGI [49] was over 81.1 µM and the GI50 [50] was 6.9 µM. It also gave a TGI [50] of over 100 µM, a GI50 [51] of 24.4 µM and a TGI [51] of over 100 µM. For the same compound, the GI50 [52] was 25.2 µM, the TGI [52] was over 100 µM and the GI50 [53] was 4.98 µM. The TGI [53] was over 100 µM, the GI50 [54] was 2420 nM and the TGI [54] was over 100 µM. The GI50 [55] was 20.4 µM, the TGI [55] was over 100 µM and the GI50 [56] was 3.48 µM. The TGI [56] was over 100 µM, the GI50 [57] was 4.63 µM and the TGI [57] was 41.1 µM. It also gave a GI50 [58] of over 100 µM and a TGI [58] of over 100 µM.
